# Experimental data from patent US20210115398A1, “CORNEAL TISSUE CULTURE SYSTEM AND CORNEAL TISSUE CULTURE METHOD THEREOF” (Chang Gung Memorial Hospital, Linkou, priority 2019, published 2021).
# How the values were obtained:
# [1] = test system: damaged rabbit corneal endothelium layer; assay: Healing effect of the damaged corneal endothelium layer of the corneal tissue (Alizarin Red S staining); type: cell-based; settings: 20 μmol/L LPA
# Description: A polyvinylidene fluoride (PVDF) filter membrane with regularly punched-out holes was used to cover the rabbit corneal endothelium layer; exposing the inner damage zone (I) scraped with Cellulose Eye Spears. The rest area of the corneal endothelium layer was defined as the outer damage zone (O). The damaged corneal tissues were placed individually in the tissue culture dishes 100, cultivated with the tissue culture media (DMEM basal medium, 10% FBS, and 25 μg/mL gentamycin) added with 20 μmol/L LPA (Example) or without LPA (Comparative example), and incubated at 37° C. with 5% CO2, wherein a portion of the corneal epithelium layer of the rabbit corneal tissues faced toward the first direction A and contacted with air and the corneal endothelium layer contacted with the tissue culture media. The inner damage zone (I) and the outer damage zone (O) of the corneal tissues on day 0 and day 2 were observed using Alizarin Red S staining. The morphology of the corneal tissue stained by Alizarin Red S was shown in FIG. 12, wherein the stained area (brown color) represented the corneal […] of the inner damage zone (I) and the unstained area represented the corneal endothelial cells of the outer zone (O). […] Refer to FIG. 14, the corneal endothelial cell density of the inner damage zone of the LPA-treated example was 1358±8 0.4 cells/mm^2, and the circularity and aspect ratio of the corneal endothelial cells were 0.68±0.15 and 2.39±1.14. However the corneal endothelial cell density of the inner damage zone of the comparative example was 900.0±198.4 cells/mm^2, and the circularity and aspect ratio of the corneal endothelial cells were 0.43±0.14 and 4.91±2.43. According to the results, the addition of LPA can stimulate cell proliferation of the damaged corneal tissue. Also, LPA enhanced the repopulation of the neighbor corneal endothelial cells to the damage zones.
# [2] = test system: corneal endothelial cells of human corneal residual tissue; assay: Proliferation and morphology of corneal endothelial cells of human corneal residual tissue (ZO-1 and Ki-67 immunostaining); type: cell-based; settings: 20 μmol/L LPA, Day 7, tissue immersed
# Description: The cell morphology, cell density, and cell proliferation of the present evaluation were performed through immunostaining.
# One-third of the human corneal residual tissue samples were used for immunostaining for ZO-1 directly (Day 0), while the remaining two-thirds were immersed and placed endothelial side up in the tissue culture media (DMEM basal medium, 10% FBS, and 25 μg/mL gentamycin) added with 20 μmol/L LPA (served as an Example) or without adding LPA (Comparative example) and incubated at 37° C. with 5% CO2. 7 days later, the tissues were cut into halves and subjected to immunostaining for ZO-1 and Ki-67 to evaluate the effects of LPA treatment on corneal endothelial cell density and cell proliferation. […] The corneal endothelial cell density of the LPA-treated example and the comparative example were 2848.8 cells/mm^2±331.7 cells/mm^2 and 2004.7 cells/mm^2±220.2 cells/mm^2.
# [3] = test system: human corneal stromal cells; assay: Cytokine analysis of culture media using human cytokine antibody array; type: cell-based; settings: 20 μmol/L LPA, 2 days
# Description: (§1) The gene expression profiling and the cytokine of the human corneal stromal cells were analyzed using cDNA microarray chip and Cytokine Array G5 chip. The human corneal stromal cells were cultured with culture media (DMEM basal medium, 10% FBS, and 25 μg/mL gentamycin) added with 20 μmol/L LPA (served as an Example) or without adding LPA (Comparative example) and incubated at 37° C. with 5% CO2. After 2 days of cultivation, the total RNA from the human corneal stromal cells in example and comparative example were isolated with the TRIzol reagent and purified using RNeasy column. After amplification and labeling the total RNA samples, GeneChip hybridization was performed and a GeneArray G7 scanner was used to scan the results. The culture media from the example and the comparative example were collected and the cytokines were analyzed using a human cytokine antibody array. […] It was confirmed that LPA stimulated the proliferation of the endothelial cells of the corneal tissue via two pathways including directly affecting the endothelial cells and stimulating the secretion of CCL20 and IL-1β from the […].
# [4] = test system: human corneal stromal cells; assay: Gene expression analysis using cDNA microarray; type: cell-based; settings: 20 μmol/L LPA, 2 days
# Description: as §1
# [5] = test system: corneal endothelial cells of rabbit corneal tissue; assay: Evaluation of the corneal endothelial cell density of the corneal tissue (tissue culture dish 100); type: cell-based; settings: 20 μmol/L LPA
# Description: The rabbit corneal tissues were placed individually in the tissue culture dishes 100, cultivated with the tissue culture media (DMEM basal medium, 10% FBS, and 25 μg/mL gentamycin) added with 20 μmol/L LPA (Example) or without LPA (Comparative example), and incubated at 37° C. with 5% CO2, wherein a portion of the corneal epithelium layer of the rabbit corneal tissues faced toward the first direction A and contacted with air and the corneal endothelium layer contacted with the tissue culture media. After 7 days of cultivation, the cell morphology and the analysis of cell density of the corneal endothelium layer were shown in FIG. 7 and FIG. 8. The density of the corneal endothelial cells of the example on day 0 was 3766.7±332.9 cells/mm^2, 4572.2±179.8 cells/mm^2 on day 5, and 4950.0±304.1 cells/mm^2 on day 7. […] According to the result, the corneal endothelial cell density may be increased in the LPA-treated example.
# [6] = test system: rabbit corneal endothelial cells; assay: Dose-response test: rabbit corneal endothelial cells co-cultivated with rabbit corneal stroma cells; type: cell-based; settings: 20 μmol/L LPA, 5 days of cultivation, co-culture with corneal stroma cells
# Description: The tissue culture media (DMEM, 10% FBS, 25 μg/mL gentamycin) added with 0 μmol/L, 10 μmol/L, 20 μmol/L, and 100 μmol/L of LPA were used for co-cultivating the rabbit corneal endothelial cells and the rabbit corneal stroma cells at 37° C. with 5% CO2. After 5 days of cultivation, the cell number of the rabbit corneal endothelial cells of each groups were calculated and shown in FIG. 6. […] According to the result, the tissue culture media used for the following experiments was added with 20 μmol/L LPA.
# [7] = test system: corneal endothelial cells of rabbit corneal tissue; assay: Evaluation of the cell proliferation of the corneal tissue (BrdU labeling); type: cell-based; settings: 10 μmol/L LPA, 7 days, BrdU from day 5 to day 7
# Description: (§2) The rabbit corneal tissues were placed individually in the tissue culture dishes 100, cultivated with the tissue culture media (DMEM basal medium, 10% FBS, and 25 μg/mL gentamycin) added with 10 μmol/L LPA (Example) or without LPA (Comparative example), and incubated at 37° C. with 5% CO2 for 7 days, wherein a portion of the corneal epithelium layer of the rabbit corneal tissues faced toward the first direction A and contacted with air and the corneal endothelium layer contacted with the tissue culture media. Bromodeoxyuridine (BrdU) was added to the culture media from day 5 to day 7 for observing the proliferation of the cells.
# [8] = test system: corneal endothelial cells of rabbit corneal tissue; assay: Morphology of the corneal endothelial cells of the corneal tissue (ZO-1 immunostaining); type: cell-based; settings: 10 μmol/L LPA, 7 days
# Description: as §2, with “The corneal endothelium layer” for “Bromodeoxyuridine (BrdU)”, “immunostained for ZO-1 on” for “added to the culture media from”, “0 and” for “5 to”, “cell morphology” for “proliferation”, “corneal endothelial cells of the corneal tissue.” for “cells.”
# [9] = test system: corneal endothelial cells of transplanted damaged corneal tissue; assay: Evaluation of corneal tissue transplantation into rabbit eyes; type: in vivo; settings: damaged cornea cultivated 2 days with 20 μmol/L LPA, day 6
# Description: The damaged corneal tissues were prepared using the PVDF filter membrane described above (please refer to the above paragraph). Then, those damaged corneal tissues were placed individually in the tissue culture dishes 100, cultivated with the tissue culture media (DMEM basal medium, 10% FBS, and 25 μg/mL gentamycin) added with 20 μmol/L LPA (Example) or without LPA (Comparative example 1), and incubated at 37° C. with 5% CO2, wherein a portion of the corneal epithelium layer of the rabbit corneal tissues faced toward the first direction A and contacted with air and the corneal endothelium layer contacted with the tissue culture media. After 2 days of cultivation, the damaged corneal tissues were transplanted into rabbit eyes. In addition, total corneal endothelium scrapping and undamaged mock donor corneas were also prepared to serve as comparative examples 2 and 3. External eye photography was taken in the rabbits after transplantation on day 0 and day 6, respectively. Following sacrifice on day 6, the corneal endothelial cells were stained with Alizarin Red S for observations of the cell morphology of the corneal endothelial cells in all density zones (A) (average of high-density and low-density zones) and cell shape in low-density zone (L) were examined. […] Please refer to FIG. 16 showing the analysis of the corneal endothelial cell density, circularity, and aspect ratio. The corneal endothelial cell density of the example was 2200.0±90.1 cells/mm^2, and the circularity and the aspect ratio of the corneal endothelial cells of example 1 were 0.84±0.05 and 1.35±0.02. However, in comparative example 1, the cell density was 1700.0±288.3 cells/mm^2, the circularity was 0.69±0.12, and the aspect ratio was 2.12±1.13.
substance,measurement,setting,value
lysophosphatidic acid [LPA],aspect ratio of the corneal endothelial cells,"[1]; day 2, inner damage zone",2.39±1.14
same,circularity of the corneal endothelial cells,"[1]; day 2, inner damage zone",0.68±0.15
same,repopulation of the inner damage zone (I),[1]; two days after tissue cultivation,repopulated by neighbor corneal endothelial cells
same,Ki-67-positive cells,[2],11.86%±2.80%
same,corneal endothelial cell density,[2],2848.8 cells/mm^2
same,morphology of corneal endothelial cells (ZO-1),[2],not altered
same,Cytokine content in media: CCL20,[3],3.26 fold change
same,Cytokine content in media: CSF3,[3],0.85 fold change
same,Cytokine content in media: IL1A,[3],0.80 fold change
same,Cytokine content in media: IL1B,[3],1.73 fold change
same,Gene expression in stromal cells: 1L1RN (Interleukin 1 receptor antagonist),[4],17.39 fold change
same,Gene expression in stromal cells: 1L7R (Interleukin 7 receptor),[4],15.03 fold change
same,Gene expression in stromal cells: CCL5,[4],17.63 fold change
same,Gene expression in stromal cells: CCL7,[4],11.39 fold change
same,Gene expression in stromal cells: CCL8,[4],15.89 fold change
same,Gene expression in stromal cells: CCL20,[4],625.99 fold change
same,Gene expression in stromal cells: CSF3,[4],85.04 fold change
same,Gene expression in stromal cells: CXCL3,[4],11.31 fold change
same,Gene expression in stromal cells: CXCL5,[4],22.32 fold change
same,Gene expression in stromal cells: CXCL10,[4],20.97 fold change
same,Gene expression in stromal cells: EPGN,[4],10.85 fold change
same,Gene expression in stromal cells: ESM1,[4],20.11 fold change
same,Gene expression in stromal cells: IL1A (Interleukin 1 alpha),[4],58.49 fold change
same,Gene expression in stromal cells: IL1B,[4],572.05 fold change
same,Gene expression in stromal cells: INHBA,[4],20.97 fold change
same,Gene expression in stromal cells: OLR1,[4],24.25 fold change
same,density of the corneal endothelial cells,[5]; day 0,3766.7±332.9 cells/mm^2
same,density of the corneal endothelial cells,[5]; day 5,4572.2±179.8 cells/mm^2
same,density of the corneal endothelial cells,[5]; day 7,4950.0±304.1 cells/mm^2
same,corneal endothelial cell proliferation (cell number),[6],significantly stimulated corneal endothelial cell proliferation
same,BrdU labeling cells,[7],35.2%±16.1%
same,morphology of the corneal endothelial cells (ZO-1),[8],not altered
same,aspect ratio of the corneal endothelial cells,[9],1.35±0.02
same,circularity of the corneal endothelial cells,[9],0.84±0.05
same,corneal endothelial cell density,[9],2200.0±90.1 cells/mm^2
same,transparency of the transplanted corneal tissue,[9],remained transparent
